Results on 16 compounds are retold here after PubChem BioAssay AID248 (DTP/NCI, 2004).

Values joined by “and” are separate entries in the source; they are usually repeats but may differ in a detail not shown here. Equal entries are not always repeated. Toxic doses and inconclusive results are not listed.

The test system of the test is L1210 leukemia ip in BDF1 mice, survival T/C. The test is described as follows: NCI In Vivo Anticancer Drug Screen. Data for tumor model L1210 Leukemia (intraperitoneal) in B6D2F1 (BDF1) mice. To be noted: endpoint: mean survival time, higher = longer survival. In a few lines: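 Mice bearing the transplanted tumor received compound or vehicle. Survival of the treated group was divided by that of the vehicle-treated control group to give the ratio.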

The mark [1] stands for this setting: dose: 100.0 mg/kg/injection, schedule: Q01DX009 (ip), vehicle: saline.
[2] abbreviates: dose: 200.0 mg/kg/injection, schedule: Q01DX009 (ip), vehicle: saline.
[3] abbreviates: dose: 50.0 mg/kg/injection, schedule: Q04DX003 (ip), vehicle: saline.
Setting [4] is: dose: 100.0 mg/kg/injection, schedule: Q04DX003 (ip), vehicle: saline with Tween-80.
[5] abbreviates: dose: 200.0 mg/kg/injection, schedule: Q04DX003 (ip), vehicle: saline with Tween-80.
[6] abbreviates: dose: 400.0 mg/kg/injection, schedule: Q04DX003 (ip), vehicle: saline with Tween-80.
Setting [7] is: dose: 100.0 mg/kg/injection, schedule: Q01DX001 (ip), vehicle: saline.
Setting [8] is: dose: 200.0 mg/kg/injection, schedule: Q01DX001 (ip), vehicle: saline.
[9] abbreviates: dose: 400.0 mg/kg/injection, schedule: Q01DX001 (ip), vehicle: saline.
Where [10] appears, read: dose: 100.0 mg/kg/injection, schedule: Q01DX Z (ip), vehicle: methylcellulose (MC).

With `CC(=O)N(C)C1=C(Sc2ccc(Cl)cc2)C(=O)c2ccccc2C1=O`, the T/C by setting is: (dose: 75.0 mg/kg/injection, schedule: Q01DX001 (ip), vehicle: carboxymethylcellulose (CMC)) 91 % of control; (dose: 150.0 mg/kg/injection, schedule: Q01DX001 (ip), vehicle: carboxymethylcellulose (CMC)) 88 % of control.

With `O=C(Nc1ncccc1[N+](=O)[O-])C(Cl)(Cl)Cl`, the T/C was 101 % of control (dose: 100.0 mg/kg/injection, schedule: Q01DX001 (ip), vehicle: Klucel (hydroxypropylcellulose) (HPC)); 115 % of control (dose: 100.0 mg/kg/injection, schedule: Q01DX009 (ip), vehicle: Klucel (hydroxypropylcellulose) (HPC)); 100 % of control and 88 % of control (dose: 100.0 mg/kg/injection, schedule: Q04DX002 (ip), vehicle: Klucel (hydroxypropylcellulose) (HPC)); 95 % of control (dose: 100.0 mg/kg/injection, schedule: Q04DX003 (ip), vehicle: Klucel (hydroxypropylcellulose) (HPC)); 100 % of control (dose: 200.0 mg/kg/injection, schedule: Q01DX001 (ip), vehicle: Klucel (hydroxypropylcellulose) (HPC)); 108 % of control (dose: 200.0 mg/kg/injection, schedule: Q01DX009 (ip), vehicle: Klucel (hydroxypropylcellulose) (HPC)). For the same compound, the T/C by setting is: (dose: 200.0 mg/kg/injection, schedule: Q04DX002 (ip), vehicle: Klucel (hydroxypropylcellulose) (HPC)) 103 % of control and 91 % of control; (dose: 200.0 mg/kg/injection, schedule: Q04DX003 (ip), vehicle: Klucel (hydroxypropylcellulose) (HPC)) 106 % of control; (dose: 400.0 mg/kg/injection, schedule: Q01DX001 (ip), vehicle: Klucel (hydroxypropylcellulose) (HPC)) 101 % of control; (dose: 400.0 mg/kg/injection, schedule: Q04DX002 (ip), vehicle: Klucel (hydroxypropylcellulose) (HPC)) 100 % of control and 103 % of control; (dose: 400.0 mg/kg/injection, schedule: Q04DX003 (ip), vehicle: Klucel (hydroxypropylcellulose) (HPC)) 95 % of control.

Consider `CC(=O)OCC(NC(=O)N(CCCl)N=O)C(OC(C)=O)C(OC(C)=O)C(COC(C)=O)OC(C)=O` (centres undefined), for which the T/C was 266 % of control (dose: 9.0 mg/kg/injection, schedule: Q01DX001 (ip), vehicle: saline + alcohol); 179 % of control (dose: 13.0 mg/kg/injection, schedule: Q01DX001 (ip), vehicle: saline + alcohol); 282 % of control (dose: 20.0 mg/kg/injection, schedule: Q01DX001 (ip), vehicle: saline + alcohol).

On to `CC(=O)Nc1nc(/C=N/NC(N)=S)cc(=O)[nH]1`, for which the T/C runs as follows: (dose: 75.0 mg/kg/injection, schedule: Q01DX001 (ip), vehicle: other) 100 % of control; (dose: 150.0 mg/kg/injection, schedule: Q01DX001 (ip), vehicle: other) 96 % of control; (dose: 300.0 mg/kg/injection, schedule: Q01DX001 (ip), vehicle: other) 105 % of control.

Regarding `Nc1ccnnc1`, the T/C is 106 % of control (dose: 50.0 mg/kg/injection, schedule: Q01DX009 (ip), vehicle: saline); 101 % of control under setting [1]; 104 % of control under setting [2].

With `CCOC(=O)c1ccc(OC(=O)Nc2ccc(Cl)cc2OC)cc1`, the T/C is 87 % of control under setting [1] and 100 % of control under setting [2].

For `Cc1c(C)c([N+](=O)[O-])c(I)c(C)c1[N+](=O)[O-]`, the T/C is 98 % of control (dose: 75.0 mg/kg/injection, schedule: Q01DX009 (ip), vehicle: Klucel (hydroxypropylcellulose) (HPC)); 102 % of control (dose: 75.0 mg/kg/injection, schedule: Q04DX003 (ip), vehicle: Klucel (hydroxypropylcellulose) (HPC)); 98 % of control (dose: 150.0 mg/kg/injection, schedule: Q01DX009 (ip), vehicle: Klucel (hydroxypropylcellulose) (HPC)); 102 % of control (dose: 150.0 mg/kg/injection, schedule: Q04DX003 (ip), vehicle: Klucel (hydroxypropylcellulose) (HPC)); 97 % of control (dose: 300.0 mg/kg/injection, schedule: Q01DX009 (ip), vehicle: Klucel (hydroxypropylcellulose) (HPC)); 98 % of control (dose: 300.0 mg/kg/injection, schedule: Q04DX003 (ip), vehicle: Klucel (hydroxypropylcellulose) (HPC)).

As to `Cn1ncc(C(=O)O)c1NN=O`, the T/C runs as follows: under setting [3], 104 % of control; (dose: 100.0 mg/kg/injection, schedule: Q01DX001 (ip), vehicle: carboxymethylcellulose (CMC)) 106 % of control; (dose: 100.0 mg/kg/injection, schedule: Q04DX003 (ip), vehicle: saline) 105 % of control; (dose: 200.0 mg/kg/injection, schedule: Q01DX001 (ip), vehicle: carboxymethylcellulose (CMC)) 108 % of control; (dose: 200.0 mg/kg/injection, schedule: Q04DX003 (ip), vehicle: saline) 96 % of control; (dose: 400.0 mg/kg/injection, schedule: Q01DX001 (ip), vehicle: carboxymethylcellulose (CMC)) 102 % of control.

As to `O=c1ccc2ccccc2n1Cc1ccc2ccccc2n1`, the T/C is 100 % of control (dose: 12.5 mg/kg/injection, schedule: Q01DX001 (ip), vehicle: acetone); 96 % of control (dose: 12.5 mg/kg/injection, schedule: Q04DX003 (ip), vehicle: saline); 92 % of control (dose: 25.0 mg/kg/injection, schedule: Q01DX001 (ip), vehicle: acetone); 91 % of control (dose: 25.0 mg/kg/injection, schedule: Q04DX003 (ip), vehicle: saline); 95 % of control (dose: 50.0 mg/kg/injection, schedule: Q01DX001 (ip), vehicle: acetone); 96 % of control under setting [3]. Moreover, the T/C reads like this: (dose: 75.0 mg/kg/injection, schedule: Q04DX003 (ip), vehicle: saline) 95 % of control; (dose: 100.0 mg/kg/injection, schedule: Q01DX001 (ip), vehicle: other) 97 % of control; (dose: 100.0 mg/kg/injection, schedule: Q01DX009 (ip), vehicle: saline with Tween-80) 104 % of control; (dose: 100.0 mg/kg/injection, schedule: Q04DX003 (ip), vehicle: other) 109 % of control; (dose: 115.0 mg/kg/injection, schedule: Q04DX003 (ip), vehicle: saline) 90 % of control; (dose: 200.0 mg/kg/injection, schedule: Q01DX001 (ip), vehicle: other) 100 % of control. Moreover, the T/C runs as follows: (dose: 200.0 mg/kg/injection, schedule: Q01DX009 (ip), vehicle: saline with Tween-80) 95 % of control; (dose: 200.0 mg/kg/injection, schedule: Q04DX003 (ip), vehicle: other) 104 % of control; (dose: 400.0 mg/kg/injection, schedule: Q01DX001 (ip), vehicle: other) 94 % of control; (dose: 400.0 mg/kg/injection, schedule: Q01DX009 (ip), vehicle: saline with Tween-80) 101 % of control; (dose: 400.0 mg/kg/injection, schedule: Q04DX003 (ip), vehicle: other) 104 % of control.

`Cc1ccc(S(=O)(=O)Nc2ccccc2-c2nc3ccc(C)cc3c(=O)o2)cc1`: the T/C reads like this: under setting [4], 88 % of control; under setting [5], 94 % of control; under setting [6], 116 % of control.

Turning to `CC1=NCC(C)(C)O1`, the T/C reads like this: under setting [4], 98 % of control; under setting [5], 95 % of control; under setting [6], 98 % of control.

With `CCCCCSB(SCCCCC)c1ccccc1`, the T/C is 89 % of control under setting [7], 89 % of control under setting [8] and 92 % of control under setting [9].

As to `Cc1ccc(Nc2cc(N)nc(N)n2)cc1Cl`, the T/C under setting [10] is 101 % of control and the T/C (dose: 200.0 mg/kg/injection, schedule: Q01DX Z (ip), vehicle: methylcellulose (MC)) is 89 % of control.

As to `NNC(=O)C1CC2C(=O)NNC(=O)C2C1C(=O)O` (centres undefined), the T/C is, setting by setting: under setting [7], 102 % of control; under setting [8], 107 % of control; under setting [9], 113 % of control.

For the compound `CCCCN(CCC#N)C(N)=O`, under setting [10], the T/C was 100 % of control.

As for `Cc1ccc(C)c2c1[nH]c1c(C)c3ccncc3c(C)c12`, the T/C reads like this: (dose: 25.0 mg/kg/injection, schedule: Q01DX Z (ip), vehicle: saline) 103 % of control; (dose: 50.0 mg/kg/injection, schedule: Q01DX Z (ip), vehicle: saline) 103 % of control; under setting [7], 100 % of control; (dose: 100.0 mg/kg/injection, schedule: Q01DX Z (ip), vehicle: saline) 112 % of control; under setting [8], 96 % of control; under setting [9], 103 % of control.
